The source of these data is patent publication US12577257B2, “Heterocyclic compounds” (Hoffmann-La Roche Inc., priority 2018, dated 2026).

By IC50 is commonly meant the concentration that gives 50% inhibition. Read a high IC50 as weaker potency.

One test has as its target T1, MAGL (Homo sapiens, UniProt Q99685).
T1 sequence (Q99685 1-303): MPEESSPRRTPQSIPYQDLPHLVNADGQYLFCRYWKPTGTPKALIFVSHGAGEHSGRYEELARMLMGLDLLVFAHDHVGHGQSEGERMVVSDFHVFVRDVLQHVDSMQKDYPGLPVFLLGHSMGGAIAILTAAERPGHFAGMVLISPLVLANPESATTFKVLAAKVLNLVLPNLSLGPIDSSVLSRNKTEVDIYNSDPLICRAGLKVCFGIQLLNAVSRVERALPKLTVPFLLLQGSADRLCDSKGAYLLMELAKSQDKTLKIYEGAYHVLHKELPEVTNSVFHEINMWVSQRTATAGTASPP
Put plainly: 2-AG assay: MAGL hydrolysis of 2-arachidonoylglycerol to arachidonic acid, followed by mass spectrometry. In kind it is biochemical. To be noted: footnote [a]: measured in 2-AG assay. The method, then:
(§1) Alternatively, compounds were profiled for MAGL inhibitory activity by determining the enzymatic activity by following the hydrolysis of the natural substrate 2-arachidonoylglycerol resulting in arachidonic acid, which can be followed by mass spectrometry. This assay is hereinafter abbreviated “2-AG assay”.
(§2) The 2-AG assay was carried out in 384 well assay plates (PP, Greiner Cat #784201) in a total volume of 20 μL. Compound dilutions were made in 100% DMSO (VWR Chemicals 23500.297) in a polypropylene plate in 3-fold dilution steps to give a final concentration range in the assay from 12.5 μM to […]. 0.25 μL compound dilutions (100% DMSO) were added to 9 μL MAGL in assay buffer (50 mM TRIS (GIBCO, 15567-027), 1 mM EDTA (Fluka, 03690-100 ml), 0.01% (v/v) Tween. After shaking, the plate was incubated for 15 min at RT. To start the reaction, 10 μL 2-arachidonoylglycerol in assay buffer was added. The final concentrations in the assay was […] and 8 μM 2-arachidonoylglycerol. After shaking and 30 min incubation at RT, the reaction was quenched by the addition of 40 μL of acetonitrile containing 4 μM of d8-arachidonic acid. The amount of arachidonic acid was traced by an online SPE system (Agilent Rapidfire) coupled to a triple quadrupole mass spectrometer (Agilent 6460). A C18 SPE cartridge (G9205A) was used in an acetonitrile/water liquid setup. The mass spectrometer was operated in negative electrospray mode following the mass transitions 303.1→259.1 for arachidonic acid and 311.1→267.0 for d8-arachidonic acid. The activity of the compounds was calculated based on the ratio of intensities [arachidonic acid/d8-arachidonic acid].
In turn, `O=C1CO[C@H]2CCN(C(=O)N3CCC4(CCN(Cc5ccc(C(F)(F)F)cc5F)C4)C3)C[C@H]2N1` (stereo partly drawn) [Example 14, (4aR,8aS)-6-(7-(2-Fluoro-4-(trifluoromethyl)benzyl)-2,7-diazaspiro[4.4]nonane-2-carbonyl)hexahydro-2H-pyrido[4,3-b][1,4]oxazin-3(4H)-one] yielded a 50% inhibitory concentration (IC50) of 268 nM.

The compound `O=C1CO[C@H]2CCN(C(=O)N3CCC4(CN(Cc5ccc(C(F)(F)F)cc5F)C4)C3)C[C@H]2N1` [Example 15, (4aR,8aS)-6-(2-(2-Fluoro-4-(trifluoromethyl)benzyl)-2,6-diazaspiro[3.4]octane-6-carbonyl)hexahydro-2H-pyrido[4,3-b][1,4]oxazin-3(4H)-one] had an IC50 of 2030 nM.

`O=C1CO[C@H]2CCN(C(=O)N3CC4(C3)CN(S(=O)(=O)c3ccc(F)cc3Cl)C4)C[C@H]2N1` [Example 16, (4aR,8aS)-6-(6-((2-Chloro-4-fluorophenyl)sulfonyl)-2,6-diazaspiro[3.3]heptane-2-carbonyl)hexahydro-2H-pyrido[4,3-b][1,4]oxazin-3(4H)-one] showed an IC50 of 228 nM. This IC50 lies about 8.9-fold lower than the previous one.

Turning to `O=C1CO[C@H]2CCN(C(=O)N3CC4(C3)CN(S(=O)(=O)c3ccc(C(F)(F)F)cc3F)C4)C[C@H]2N1` [Example 17, (4aR,8aS)-6-(6-((2-Fluoro-4-(trifluoromethyl)phenyl)sulfonyl)-2,6-diazaspiro[3.3]heptane-2-carbonyl)hexahydro-2H-pyrido[4,3-b][1,4]oxazin-3(4H)-one], the half-inhibitory concentration (IC50) came to 768 nM.

`O=C1CO[C@H]2CCN(C(=O)N3CC4(CC(Oc5cc(C(F)(F)F)c(C(F)(F)F)cn5)C4)C3)C[C@H]2N1` [Example 22, (4aR,8aS)-6-(6-((4,5-Bis(trifluoromethyl)pyridin-2-yl)oxy)-2-azaspiro[3.3]heptane-2-carbonyl)hexahydro-2H-pyrido[4,3-b][1,4]oxazin-3(4H)-one] came in with an IC50 of 3.8 nM.

In turn, `O=C1CO[C@H]2CCN(C(=O)N3CC4(CC(Oc5ccc(C(F)(F)F)c(C(F)(F)F)n5)C4)C3)C[C@H]2N1` [Example 23, (4aR,8aS)-6-(6-((5,6-Bis(trifluoromethyl)pyridin-2-yl)oxy)-2-azaspiro[3.3]heptane-2-carbonyl)hexahydro-2H-pyrido[4,3-b][1,4]oxazin-3(4H)-one] had an IC50 of 4.8 nM. This IC50 and that of the compound before are within 1.5-fold of each other.

Regarding `CN([C@H]1COC2(CCN(C(=O)N3CC[C@@H]4OCC(=O)N[C@@H]4C3)CC2)C1)S(=O)(=O)c1ccc(F)cc1Cl` [Example 24, 2-Chloro-4-fluoro-N-methyl-N-((R)-8-((4aR,8aS)-3-oxooctahydro-2H-pyrido[4,3-b][1,4]oxazine-6-carbonyl)-1-oxa-8-azaspiro[4.5]decan-3-yl)benzenesulfonamide], the IC50 came to 20.9 nM.

In the case of `O=C1CO[C@H]2CCN(C(=O)N3CC4(CC(Oc5ccc(C(F)(F)F)cn5)C4)C3)C[C@H]2N1` [Example 25, (4aR,8aS)-6-(6-((5-(Trifluoromethyl)pyridin-2-yl)oxy)-2-azaspiro[3.3]heptane-2-carbonyl)hexahydro-2H-pyrido[4,3-b][1,4]oxazin-3(4H)-one], the IC50 was 28.9 nM.

`Cc1ccc(COC2CC3(C2)CN(C(=O)N2CC[C@@H]4OCC(=O)N[C@@H]4C2)C3)cc1C(F)(F)F` [Example 26, (4aR,8aS)-6-(6-((4-Methyl-3-(trifluoromethyl)benzyl)oxy)-2-azaspiro[3.3]heptane-2-carbonyl)hexahydro-2H-pyrido[4,3-b][1,4]oxazin-3(4H)-one] registered an IC50 of 31 nM.

Regarding `O=C1CO[C@H]2CCN(C(=O)N3CCC4(CC3)CN(S(=O)(=O)c3ccc(F)cc3Cl)C4)C[C@H]2N1` [Example 27, (4aR,8aS)-6-(2-((2-Chloro-4-fluorophenyl)sulfonyl)-2,7-diazaspiro[3.5]nonane-7-carbonyl)hexahydro-2H-pyrido[4,3-b][1,4]oxazin-3(4H)-one], the IC50 was determined as 33.1 nM.

In the case of `O=C1CO[C@H]2CCN(C(=O)N3CC4(CC(OCc5ccc(C(F)(F)F)cc5F)C4)C3)C[C@H]2N1` [Example 28, (4aR,8aS)-6-(6-((2-Fluoro-4-(trifluoromethyl)benzyl)oxy)-2-azaspiro[3.3]heptane-2-carbonyl)hexahydro-2H-pyrido[4,3-b][1,4]oxazin-3(4H)-one], the 50% inhibitory concentration (IC50) came out at 36.4 nM.

`CN([C@H]1COC2(CCN(C(=O)N3CC[C@@H]4OCC(=O)N[C@@H]4C3)CC2)C1)S(=O)(=O)c1ccccc1` [Example 30, N-Methyl-N-((R)-8-((4aR,8aS)-3-oxooctahydro-2H-pyrido[4,3-b][1,4]oxazine-6-carbonyl)-1-oxa-8-azaspiro[4.5]decan-3-yl)benzenesulfonamide] returned an IC50 of 49.3 nM.

Compound `O=C1CO[C@H]2CCN(C(=O)N3CCC4(CC3)CN(S(=O)(=O)c3ccc(C(F)(F)F)cc3)C4)C[C@H]2N1` [Example 37, (4aR,8aS)-6-(2-((4-(Trifluoromethyl)phenyl)sulfonyl)-2,7-diazaspiro[3.5]nonane-7-carbonyl)hexahydro-2H-pyrido[4,3-b][1,4]oxazin-3(4H)-one] had a half-maximal inhibitory concentration (IC50) of 389 nM.

`O=C1CO[C@H]2CCN(C(=O)N3CCC4(CC3)CC(Oc3ccc(F)cc3F)C4)C[C@H]2N1` [Example 40, (4aR,8aS)-6-[2-(2,4-Difluorophenoxy)-7-azaspiro[3.5]nonane-7-carbonyl]-4,4a,5,7,8,8a-hexahydropyrido[4,3-b][1,4]oxazin-3-one] registered an IC50 of 11.3 nM.

On to `O=C1CO[C@H]2CCN(C(=O)N3CCC4(CC3)CC(Oc3ccc(F)cc3Cl)C4)C[C@H]2N1` [Example 42, (4aR,8aS)-6-[2-(2-Chloro-4-fluoro-phenoxy)-7-azaspiro[3.5]nonane-7-carbonyl]-4,4a,5,7,8,8a-hexahydropyrido[4,3-b][1,4]oxazin-3-one], for which the midpoint of inhibition, the IC50, lay at 2.1 nM. Compared with the last compound, the IC50 is about 5.4-fold lower.

`O=C1CO[C@H]2CCN(C(=O)N3CC4(CC(COc5ccc(C(F)(F)F)cc5F)C4)C3)C[C@H]2N1` [Example 43, (4aR,8aS)-6-[6-[[2-Fluoro-4-(trifluoromethyl)phenoxy]methyl]-2-azaspiro[3.3]heptane-2-carbonyl]-4,4a,5,7,8,8a-hexahydropyrido[4,3-b][1,4]oxazin-3-one]: inhibition was half-maximal at 1 nM (IC50).

The target of another test is T1, MAGL. Put plainly: MAGL inhibition, Table 1 values with no assay marker (2-AG or 4-NPA assay not stated). In kind it is biochemical.
Settings: not given
The method, then:
Compounds were profiled for MAGL inhibitory activity by measuring the enzymatic activity of MAGL by following the hydrolysis of 4-nitrophenylacetate resulting in 4-nitrophenol, which absorbs at 405-412 nm (G. G. Muccioli, G. Labar, D. M. Lambert, Chem. Bio. Chem. 2008, 9, 2704-2710). This assay is hereinafter abbreviated “4-NPA assay”.
The 4-NPA assay was carried out in 384 well assay plates (black with clear bottom, non-binding surface treated, Corning Ref. 3655) in a total volume of 40 μL. Compound dilutions were made in 100% DMSO (VWR Chemicals 23500.297) in a polypropylene plate in 3-fold dilution steps to give a final concentration range in the assay from 25 μM to 1.7 nM. 1 μL compound dilutions (100% DMSO) were added to 19 μL MAGL (recombinant wild-type) in assay buffer (50 mM TRIS (GIBCO, 15567-027), 1 mM EDTA (Fluka, 03690-100 ml)). The plate was shaked for 1 min at 2000 rpm (Variomag Teleshake) and then incubated for 15 min at RT. To start the reaction, 20 μL 4-Nitrophenylacetate (Sigma N-8130) in assay buffer with 6% EtOH was added. The final concentrations in the assay were 1 nM MAGL and 300 μM 4-Nitrophenylacetate. After shaking (1 min, 2000 rpm) and 5 min incubation at RT, the absorbance at 405 nm was measured for a first time (Molecular Devices, SpectraMax Paradigm). A second measurement was then done after incubation for 80 min at RT. From the two measurements, the slope was calculated by subtracting the first from the second measurement.
as §1, §2
Compound `O=C1CO[C@H]2CCN(C(=O)N3CC4(C3)CC(OCc3ccc(C(F)(F)F)cc3F)(C(F)(F)F)C4)C[C@H]2N1` [Example 44, (4aR,8aS)-6-(6-((2-fluoro-4-(trifluoromethyl)benzyl)oxy)-6-(trifluoromethyl)-2-azaspiro[3.3]heptane-2-carbonyl)hexahydro-2H-pyrido[4,3-b][1,4]oxazin-3(4H)-one] returned an IC50 of 185 nM. In other words, the sub-micromolar range.

The compound `O=C1CO[C@H]2CCN(C(=O)N3CC4(CC(c5ccc(C(F)(F)F)cc5F)C4)C3)C[C@H]2N1` [Example 45, (4aR,8aS)-6-(6-(2-fluoro-4-(trifluoromethyl)phenyl)-2-azaspiro[3.3]heptane-2-carbonyl)hexahydro-2H-pyrido[4,3-b][1,4]oxazin-3(4H)-one] displayed an IC50 of 37 nM.

For the compound `O=C1CO[C@H]2CCN(C(=O)N3CC4(CC(c5ccc(S(F)(F)(F)(F)F)cc5)C4)C3)C[C@H]2N1` [Example 46, (4aR,8aS)-6-(6-(4-(pentafluoro-l6-sulfaneyl)phenyl)-2-azaspiro[3.3]heptane-2-carbonyl)hexahydro-2H-pyrido[4,3-b][1,4]oxazin-3(4H)-one], the IC50 was 14.5 nM.
